Measurements published in ChEMBL document CHEMBL1129343, “Retinoic acid receptor beta,gamma-selective ligands: synthesis and biological activity of 6-substituted 2-naphthoic acid retinoids” (J Med Chem, 1996).

Columns and labels:
[1] = molecular target: T1, Retinoic acid receptor alpha (Homo sapiens, UniProt P10276); assay: Apparent binding constant against Retinoic acid receptor alpha in HeLa cell GAl-4 transactivation assay; type: cell-based
T1 sequence (P10276 whole entry): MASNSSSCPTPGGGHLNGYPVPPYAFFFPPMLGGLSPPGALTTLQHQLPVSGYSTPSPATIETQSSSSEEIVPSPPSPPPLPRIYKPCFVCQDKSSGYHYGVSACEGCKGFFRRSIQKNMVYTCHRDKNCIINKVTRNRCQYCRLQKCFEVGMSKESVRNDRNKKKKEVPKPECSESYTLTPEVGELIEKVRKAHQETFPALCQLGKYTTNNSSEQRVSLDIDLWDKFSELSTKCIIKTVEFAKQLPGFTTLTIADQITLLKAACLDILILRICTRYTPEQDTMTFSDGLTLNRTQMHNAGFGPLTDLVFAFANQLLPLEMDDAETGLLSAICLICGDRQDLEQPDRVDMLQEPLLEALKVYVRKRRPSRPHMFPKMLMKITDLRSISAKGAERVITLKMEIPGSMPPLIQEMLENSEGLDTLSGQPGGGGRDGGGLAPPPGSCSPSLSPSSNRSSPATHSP

[2] = molecular target: T2, Retinoic acid receptor beta (Homo sapiens, UniProt P10826); assay: Apparent binding constant for Retinoic acid receptor beta in HeLa cellGAL-4 transactivation assay; type: cell-based
T2 sequence (P10826 whole entry): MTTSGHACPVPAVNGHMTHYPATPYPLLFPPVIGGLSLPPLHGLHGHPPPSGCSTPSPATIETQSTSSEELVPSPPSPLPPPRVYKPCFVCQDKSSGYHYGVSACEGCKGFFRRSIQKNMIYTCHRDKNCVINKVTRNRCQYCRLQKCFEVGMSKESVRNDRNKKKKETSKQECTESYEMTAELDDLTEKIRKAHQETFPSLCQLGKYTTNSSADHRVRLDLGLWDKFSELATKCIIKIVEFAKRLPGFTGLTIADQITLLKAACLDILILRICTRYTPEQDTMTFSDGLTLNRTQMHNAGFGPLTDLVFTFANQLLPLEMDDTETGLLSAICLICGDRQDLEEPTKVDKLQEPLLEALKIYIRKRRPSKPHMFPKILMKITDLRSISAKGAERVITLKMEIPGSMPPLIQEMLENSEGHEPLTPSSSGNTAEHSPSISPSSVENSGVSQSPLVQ

CC1(C)CCC(C)(C)c2cc(/C(=N/NS(C)(=O)=O)c3ccc4cc(C(=O)O)ccc4c3)ccc21
Kd [1]: 11 µM
Kd [2]: 1.27 µM
